In ChEMBL document CHEMBL1201862, “PubChem BioAssay data set” (2004):
Calls of active or inactive are those of the source.

Tests used:
Vero [1] = test: cells; type: functional, Chlorocebus sabaeus
H9c2 = test: cells; type: functional, cell-based; conditions: Rattus norvegicus, H9c2, Myocardium;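 also: confirmatory concentration-response retest of ultra-high-throughput screening hits for modulation of myocardial damage; cell death induced by hydrogen peroxide oxidative stress; compound pretreatment for 60 min then peroxide exposure for 2 h; potency is for protecting the cells against peroxide damage rather than for killing them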
[2] = viability loss of HPDE-C7K cells – cell-based, fluorescence, HTS, primary screen (AID 431); type: functional; conditions: Homo sapiens
[3] = HPDE-C7 pancreatic duct cell viability loss – fluorescence, HTS (AID 430); type: functional, cell-based; conditions: Homo sapiens
[4] = molecular target: Aryl hydrocarbon receptor (Homo sapiens, UniProt P35869); conditions: Potency;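 also: confirmatory quantitative high-throughput screen measuring activation of the AhR signaling pathway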
[5] = mitochondrial function rescue without frataxin homolog – Friedreich's ataxia, plus single-dose screen, dose response (AID 1465); type: functional;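 also: yeast depleted of Yfh1p frataxin homolog grown on glycerol needing respiration; WST-1 tetrazolium dye reduction as measure of cellular dehydrogenase metabolic activity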
Vero [6] = test: cells; type: functional, cell-based; conditions: Chlorocebus sabaeus
[7] = molecular target: T1, Mitochondrial peptide methionine sulfoxide reductase (Bos taurus, UniProt P54149); test: Absorbance-based biochemical high throughput dose response assay for activators of Methionine sulfoxide reductase A (MsrA).; type: functional
[8] = molecular target: T2, Sentrin-specific protease 6 (Homo sapiens, UniProt Q9GZR1); type: functional;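 also: Luminescence-based dose-response confirmatory assay of SENP6 inhibition, following up an ultra-high-throughput screen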
T2 sequence (Q9GZR1 whole entry): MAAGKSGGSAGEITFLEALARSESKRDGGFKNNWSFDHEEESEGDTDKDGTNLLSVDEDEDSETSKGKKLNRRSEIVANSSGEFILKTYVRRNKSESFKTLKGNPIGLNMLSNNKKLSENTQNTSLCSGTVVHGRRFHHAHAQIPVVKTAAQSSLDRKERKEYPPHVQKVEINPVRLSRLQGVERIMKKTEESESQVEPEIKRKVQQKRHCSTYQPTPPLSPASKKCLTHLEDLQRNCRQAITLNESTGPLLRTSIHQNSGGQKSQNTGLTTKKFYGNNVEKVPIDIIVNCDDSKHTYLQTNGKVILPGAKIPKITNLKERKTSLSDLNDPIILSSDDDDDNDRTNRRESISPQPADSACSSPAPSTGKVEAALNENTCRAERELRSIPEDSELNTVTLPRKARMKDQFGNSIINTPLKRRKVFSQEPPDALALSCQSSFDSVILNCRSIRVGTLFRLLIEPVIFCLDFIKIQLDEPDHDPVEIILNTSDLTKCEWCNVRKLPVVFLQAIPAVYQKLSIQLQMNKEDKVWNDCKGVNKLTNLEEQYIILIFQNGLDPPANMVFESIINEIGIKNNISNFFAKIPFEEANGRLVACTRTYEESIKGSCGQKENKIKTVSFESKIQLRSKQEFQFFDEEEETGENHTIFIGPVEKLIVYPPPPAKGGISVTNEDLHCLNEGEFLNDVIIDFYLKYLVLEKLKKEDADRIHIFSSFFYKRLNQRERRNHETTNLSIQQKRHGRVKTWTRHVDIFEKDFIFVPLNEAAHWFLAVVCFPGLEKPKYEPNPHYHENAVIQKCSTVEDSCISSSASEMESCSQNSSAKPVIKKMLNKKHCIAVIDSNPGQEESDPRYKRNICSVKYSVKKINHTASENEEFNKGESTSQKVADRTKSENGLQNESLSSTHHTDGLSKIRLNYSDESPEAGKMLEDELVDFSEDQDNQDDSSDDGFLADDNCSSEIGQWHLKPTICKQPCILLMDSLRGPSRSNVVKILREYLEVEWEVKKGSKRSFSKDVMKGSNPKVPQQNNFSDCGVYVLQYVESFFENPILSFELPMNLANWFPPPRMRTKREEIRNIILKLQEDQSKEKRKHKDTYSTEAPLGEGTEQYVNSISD

Caspase-3 = molecular target: T3, Caspase-3 (Homo sapiens, UniProt P42574); type: functional;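 also: Dose-response selectivity test against caspase-3 for candidate inhibitors of sentrin-specific proteases (SENPs)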
T3 sequence (P42574 whole entry): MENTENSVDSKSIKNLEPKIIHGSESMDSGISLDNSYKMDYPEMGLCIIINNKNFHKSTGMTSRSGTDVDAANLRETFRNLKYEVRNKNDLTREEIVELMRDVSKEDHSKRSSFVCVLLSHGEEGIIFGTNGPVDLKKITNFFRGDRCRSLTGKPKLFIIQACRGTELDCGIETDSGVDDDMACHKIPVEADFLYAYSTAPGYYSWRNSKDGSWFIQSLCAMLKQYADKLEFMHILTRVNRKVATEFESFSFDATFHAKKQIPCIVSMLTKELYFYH

[9] = molecular target: Heat shock protein HSP 90-alpha (Homo sapiens, UniProt P07900); type: functional, organism-based
[10] = molecular target: T4, Sentrin-specific protease 7 (Homo sapiens, UniProt Q9BQF6); type: functional;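 also: Luminescence-based dose-response confirmation of ultra-high-throughput screening hits, measuring inhibition of SENP7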
T4 sequence (Q9BQF6 whole entry): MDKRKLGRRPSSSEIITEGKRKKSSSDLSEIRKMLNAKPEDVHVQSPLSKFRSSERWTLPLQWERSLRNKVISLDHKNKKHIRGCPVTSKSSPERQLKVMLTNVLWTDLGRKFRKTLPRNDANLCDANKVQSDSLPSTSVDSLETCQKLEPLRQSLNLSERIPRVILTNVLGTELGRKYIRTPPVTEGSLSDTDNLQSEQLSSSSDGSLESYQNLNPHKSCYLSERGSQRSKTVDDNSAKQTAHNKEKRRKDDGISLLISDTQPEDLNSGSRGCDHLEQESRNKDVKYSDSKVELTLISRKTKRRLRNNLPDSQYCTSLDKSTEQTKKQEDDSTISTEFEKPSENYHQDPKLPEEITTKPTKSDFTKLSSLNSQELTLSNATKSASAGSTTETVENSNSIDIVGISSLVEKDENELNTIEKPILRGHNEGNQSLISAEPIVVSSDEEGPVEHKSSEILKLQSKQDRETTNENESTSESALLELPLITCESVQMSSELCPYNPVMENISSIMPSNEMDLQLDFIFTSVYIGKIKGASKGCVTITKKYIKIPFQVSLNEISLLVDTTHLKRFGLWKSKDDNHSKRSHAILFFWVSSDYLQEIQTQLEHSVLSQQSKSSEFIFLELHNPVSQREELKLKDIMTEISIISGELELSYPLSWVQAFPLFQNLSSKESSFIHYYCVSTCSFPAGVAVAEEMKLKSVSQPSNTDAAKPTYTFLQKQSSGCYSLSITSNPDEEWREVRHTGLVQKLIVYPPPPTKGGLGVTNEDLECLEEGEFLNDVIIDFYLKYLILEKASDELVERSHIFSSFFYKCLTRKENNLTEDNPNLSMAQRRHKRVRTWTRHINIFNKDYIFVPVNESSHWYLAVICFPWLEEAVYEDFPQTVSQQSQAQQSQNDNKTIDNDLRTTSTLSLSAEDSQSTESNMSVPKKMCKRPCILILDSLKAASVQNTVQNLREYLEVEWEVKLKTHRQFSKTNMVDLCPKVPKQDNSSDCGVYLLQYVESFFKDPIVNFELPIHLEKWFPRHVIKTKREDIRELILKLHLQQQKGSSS

Caspase-9 = Caspase-9 (Homo sapiens, UniProt P55211); test: inhibitors of purified CASP9 protease – biochemical, fluorescence, plate reader, cherry-picked samples, selectivity assay for caspase-6 inhibitor project, dose response (AID 743293)
Caspase-6 = molecular target: T5, Caspase-6 (Homo sapiens, UniProt P55212); test: inhibition of CASP6 peptide cleavage – biochemical, VEID-R110 fluorescence, cherry-pick, dose response (AID 720632)
T5 sequence (P55212 whole entry): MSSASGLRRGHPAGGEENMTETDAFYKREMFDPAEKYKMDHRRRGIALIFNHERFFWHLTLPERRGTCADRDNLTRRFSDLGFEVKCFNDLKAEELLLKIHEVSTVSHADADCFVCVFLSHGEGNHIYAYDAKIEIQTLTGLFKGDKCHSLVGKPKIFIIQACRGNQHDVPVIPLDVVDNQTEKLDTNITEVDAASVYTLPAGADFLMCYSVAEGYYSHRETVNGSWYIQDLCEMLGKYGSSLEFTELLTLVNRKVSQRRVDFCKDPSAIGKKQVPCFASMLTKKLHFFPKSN

Caspase-8 = Caspase-8 (Homo sapiens, UniProt Q14790); test: inhibitors of purified CASP8 protease – biochemical, Z-IETD-R110 fluorescence, cherry-picked samples, selectivity assay for caspase-6 inhibitor project, dose response (AID 743294)
[11] = molecular target: T6, Sentrin-specific protease 8 (Homo sapiens, UniProt Q96LD8); type: functional;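 also: luminescence read-out of SENP8 inhibition, dose-response confirmation following an ultra-high-throughput screen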
T6 sequence (Q96LD8 whole entry): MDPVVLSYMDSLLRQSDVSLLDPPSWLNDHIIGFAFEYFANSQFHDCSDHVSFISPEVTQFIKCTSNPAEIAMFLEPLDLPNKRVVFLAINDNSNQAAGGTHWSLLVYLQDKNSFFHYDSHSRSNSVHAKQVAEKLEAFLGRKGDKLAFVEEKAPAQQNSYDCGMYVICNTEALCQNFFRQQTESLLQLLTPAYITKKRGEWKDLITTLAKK

Caspase-7 = molecular target: T7, Caspase-7 (Homo sapiens, UniProt P55210); test: caspase-7 enzyme inhibition, selectivity check – biochemical, DEVD-R110 fluorescence, cherry-pick, selectivity assay for caspase-6 inhibitor project, dose response (AID 743295); type: functional
T7 sequence (P55210 whole entry): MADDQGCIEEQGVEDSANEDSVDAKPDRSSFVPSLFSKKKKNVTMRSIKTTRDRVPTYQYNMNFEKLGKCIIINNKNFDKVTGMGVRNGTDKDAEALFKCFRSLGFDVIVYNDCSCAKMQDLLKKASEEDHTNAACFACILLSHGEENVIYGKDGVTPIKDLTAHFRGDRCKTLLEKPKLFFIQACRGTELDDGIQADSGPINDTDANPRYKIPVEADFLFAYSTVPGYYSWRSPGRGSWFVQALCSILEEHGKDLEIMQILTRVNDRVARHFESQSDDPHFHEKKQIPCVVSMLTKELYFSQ

[12] = Fluorescence-based cell-based high throughput dose response assay for inhibitors of the interaction of nucleotide-binding oligomerization domain containing 2 (NOD2) and the receptor-interacting serine-threonine kinase 2 (RIPK2).; type: functional; conditions: Homo sapiens
[13] = molecular target: Nuclear receptor subfamily 5 group A member 2 (Homo sapiens, UniProt O00482); type: functional, cell-based;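 also: HEK293T cells transfected with LRH-1 and a StAR promoter luciferase reporter; potency for inhibitors that lower LRH-1 driven reporter light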
[14] = molecular target: T8, Polyadenylate-binding protein 1 (Homo sapiens, UniProt P11940); test: MLLE binding blockers, Cy5 peptide tracer – biochemical, fluorescence polarization, Cy5-PAM2 peptide, secondary, miRNA deadenylation inhibitor project, dose response (AID 602260); type: functional; conditions: read-out: IC50_Mean
[15] = nonselective StAR promoter luciferase inhibitors – cell-based, luminescence, luciferase reporter, counter-screen for LRH-1 inverse agonist project, dose response (AID 651969); type: functional
[16] = molecular target: T8, Polyadenylate-binding protein 1; test: MLLE domain peptide-binding blockers, IC50 – biochemical, fluorescence polarization, FITC-PAM2 peptide, dose response (AID 602259); type: functional; conditions: read-out: IC50_Mean
Steroidogenic factor 1 = Steroidogenic factor 1 (Homo sapiens, UniProt Q13285); test: Counterscreen for inverse agonists of the liver receptor homolog-1 (LRH-1; NR5A2): Luminescence-based cell-based high throughput dose response assay to identify inverse agonists of the Steroidogenic Factor 1 Nuclear Receptor (SF1; NR5A1).; type: functional
[17] = molecular target: T1, Mitochondrial peptide methionine sulfoxide reductase; type: functional
[18] = molecular target: T9, ATP-dependent translocase ABCB1 (Homo sapiens, UniProt P08183); test: P-gp JC-1 efflux blockade concentration-response – Jurkat-DNR cells, flow cytometry, set 2, dose response (AID 504569); type: functional; conditions: read-out: EC50_MICROM_;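 also: potency of pump inhibitors that raise cellular JC-1 green fluorescence up to the nicardipine level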
[19] = molecular target: T9, ATP-dependent translocase ABCB1; test: inhibition of BCRP-mediated JC-1 efflux – Ig-MXP3 cells, flow cytometry, set 2, dose response (AID 504566); type: functional; conditions: read-out: EC50_MICROM_;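 also: flow cytometry median green fluorescence of retained JC-1 dye; potency of efflux pump inhibition measured as rising substrate retention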

T8 sequence (P11940 whole entry): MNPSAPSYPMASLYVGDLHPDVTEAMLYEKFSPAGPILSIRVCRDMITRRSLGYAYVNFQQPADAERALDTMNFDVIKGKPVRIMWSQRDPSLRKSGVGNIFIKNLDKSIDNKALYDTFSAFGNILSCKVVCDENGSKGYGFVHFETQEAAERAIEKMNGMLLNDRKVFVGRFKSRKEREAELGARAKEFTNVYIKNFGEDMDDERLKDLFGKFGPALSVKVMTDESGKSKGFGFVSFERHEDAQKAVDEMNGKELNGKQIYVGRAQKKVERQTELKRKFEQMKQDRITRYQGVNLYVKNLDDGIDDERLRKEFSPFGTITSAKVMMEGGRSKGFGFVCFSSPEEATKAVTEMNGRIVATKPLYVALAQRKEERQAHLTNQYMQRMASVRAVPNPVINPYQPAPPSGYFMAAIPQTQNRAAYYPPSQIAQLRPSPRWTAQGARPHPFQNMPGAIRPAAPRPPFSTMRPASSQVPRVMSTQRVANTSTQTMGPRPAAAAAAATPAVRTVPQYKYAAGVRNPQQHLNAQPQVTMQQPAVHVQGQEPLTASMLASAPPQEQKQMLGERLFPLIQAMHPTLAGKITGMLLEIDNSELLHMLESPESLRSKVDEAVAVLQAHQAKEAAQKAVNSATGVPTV
T1 sequence (P54149 whole entry): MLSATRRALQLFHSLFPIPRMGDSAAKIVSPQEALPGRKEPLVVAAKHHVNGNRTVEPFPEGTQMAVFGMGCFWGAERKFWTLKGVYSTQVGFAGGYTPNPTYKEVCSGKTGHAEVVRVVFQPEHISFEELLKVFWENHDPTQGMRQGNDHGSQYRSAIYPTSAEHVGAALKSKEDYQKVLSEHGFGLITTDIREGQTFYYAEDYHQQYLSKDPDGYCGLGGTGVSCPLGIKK
T9 sequence (P08183 whole entry): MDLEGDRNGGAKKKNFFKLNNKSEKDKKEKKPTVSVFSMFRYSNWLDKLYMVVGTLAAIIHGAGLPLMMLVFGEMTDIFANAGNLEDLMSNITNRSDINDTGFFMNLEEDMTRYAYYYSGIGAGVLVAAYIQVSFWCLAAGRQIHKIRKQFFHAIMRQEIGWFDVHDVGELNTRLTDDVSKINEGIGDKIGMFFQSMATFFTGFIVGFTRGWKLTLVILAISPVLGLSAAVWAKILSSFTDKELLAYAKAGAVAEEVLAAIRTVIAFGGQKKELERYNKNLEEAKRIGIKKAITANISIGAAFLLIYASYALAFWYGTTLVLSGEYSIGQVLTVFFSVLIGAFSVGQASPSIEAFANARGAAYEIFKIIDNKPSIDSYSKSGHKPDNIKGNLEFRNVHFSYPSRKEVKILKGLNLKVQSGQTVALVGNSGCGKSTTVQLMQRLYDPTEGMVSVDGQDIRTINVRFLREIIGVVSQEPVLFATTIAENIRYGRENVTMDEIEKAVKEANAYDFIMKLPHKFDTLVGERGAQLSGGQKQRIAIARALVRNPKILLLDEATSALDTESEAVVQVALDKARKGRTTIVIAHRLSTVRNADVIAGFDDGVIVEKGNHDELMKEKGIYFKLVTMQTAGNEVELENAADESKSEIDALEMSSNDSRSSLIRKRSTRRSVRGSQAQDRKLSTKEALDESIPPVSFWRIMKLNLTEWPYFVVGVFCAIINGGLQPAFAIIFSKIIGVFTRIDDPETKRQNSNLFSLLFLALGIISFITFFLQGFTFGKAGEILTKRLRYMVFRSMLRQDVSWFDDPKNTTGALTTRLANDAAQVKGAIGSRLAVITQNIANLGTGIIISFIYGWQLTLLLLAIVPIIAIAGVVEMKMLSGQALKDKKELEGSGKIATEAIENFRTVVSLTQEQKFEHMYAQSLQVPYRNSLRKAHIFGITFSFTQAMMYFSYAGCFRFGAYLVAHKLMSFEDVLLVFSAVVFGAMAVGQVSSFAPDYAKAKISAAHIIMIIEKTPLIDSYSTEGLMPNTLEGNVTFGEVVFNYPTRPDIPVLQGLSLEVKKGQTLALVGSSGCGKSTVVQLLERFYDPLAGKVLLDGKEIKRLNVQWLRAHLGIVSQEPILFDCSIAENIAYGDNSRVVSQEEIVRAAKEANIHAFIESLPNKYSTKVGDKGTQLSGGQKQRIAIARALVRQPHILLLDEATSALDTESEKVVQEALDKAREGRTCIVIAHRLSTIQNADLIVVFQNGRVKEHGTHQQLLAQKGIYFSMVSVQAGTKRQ
Aryl hydrocarbon receptor, sequence (P35869 whole entry): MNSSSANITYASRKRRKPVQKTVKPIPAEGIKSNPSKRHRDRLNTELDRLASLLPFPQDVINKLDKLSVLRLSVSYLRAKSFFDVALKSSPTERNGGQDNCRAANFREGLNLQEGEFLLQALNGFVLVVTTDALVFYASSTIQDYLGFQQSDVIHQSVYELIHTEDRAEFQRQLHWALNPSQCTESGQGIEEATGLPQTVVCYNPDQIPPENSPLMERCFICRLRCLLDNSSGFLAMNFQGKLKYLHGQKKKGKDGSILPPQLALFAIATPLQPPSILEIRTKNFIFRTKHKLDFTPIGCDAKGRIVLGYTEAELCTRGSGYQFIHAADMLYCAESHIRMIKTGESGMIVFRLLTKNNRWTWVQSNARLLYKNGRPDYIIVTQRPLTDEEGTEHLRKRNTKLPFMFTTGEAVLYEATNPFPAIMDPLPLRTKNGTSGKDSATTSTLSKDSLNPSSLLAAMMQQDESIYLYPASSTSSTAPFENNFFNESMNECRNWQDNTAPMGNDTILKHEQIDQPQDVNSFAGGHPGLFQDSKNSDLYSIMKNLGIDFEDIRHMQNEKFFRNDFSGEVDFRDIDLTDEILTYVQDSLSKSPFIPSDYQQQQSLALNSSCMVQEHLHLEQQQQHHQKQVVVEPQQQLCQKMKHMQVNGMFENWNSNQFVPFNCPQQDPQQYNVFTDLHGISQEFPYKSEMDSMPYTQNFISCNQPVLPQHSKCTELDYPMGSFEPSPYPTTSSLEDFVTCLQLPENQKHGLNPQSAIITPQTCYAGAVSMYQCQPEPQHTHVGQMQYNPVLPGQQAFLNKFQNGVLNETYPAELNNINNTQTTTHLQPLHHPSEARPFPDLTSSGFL
Caspase-9, sequence (P55211 1-315 limits assumed): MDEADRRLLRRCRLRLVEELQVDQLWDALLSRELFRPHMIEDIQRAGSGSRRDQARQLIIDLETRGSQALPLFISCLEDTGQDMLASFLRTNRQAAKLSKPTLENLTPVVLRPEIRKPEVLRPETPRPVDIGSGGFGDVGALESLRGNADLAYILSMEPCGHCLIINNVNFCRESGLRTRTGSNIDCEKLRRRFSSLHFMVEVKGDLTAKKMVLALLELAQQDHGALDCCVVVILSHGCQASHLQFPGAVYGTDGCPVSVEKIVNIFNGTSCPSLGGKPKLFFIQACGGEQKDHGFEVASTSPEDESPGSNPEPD
Caspase-9, sequence (P55211 331-416 limits assumed): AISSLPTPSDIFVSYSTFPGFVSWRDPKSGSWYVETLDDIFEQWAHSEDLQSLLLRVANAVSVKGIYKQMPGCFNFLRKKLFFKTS
Caspase-8, sequence (Q14790 217-374 limits assumed): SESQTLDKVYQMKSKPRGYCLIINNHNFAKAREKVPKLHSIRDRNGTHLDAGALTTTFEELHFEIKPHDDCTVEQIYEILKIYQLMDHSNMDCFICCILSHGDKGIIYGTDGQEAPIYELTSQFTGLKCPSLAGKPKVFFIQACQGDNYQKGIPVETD
Caspase-8, sequence (Q14790 385-479 limits assumed): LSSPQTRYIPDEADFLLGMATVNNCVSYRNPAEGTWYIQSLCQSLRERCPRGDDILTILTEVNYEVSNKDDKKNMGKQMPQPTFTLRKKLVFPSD
Steroidogenic factor 1, sequence (Q13285 whole entry): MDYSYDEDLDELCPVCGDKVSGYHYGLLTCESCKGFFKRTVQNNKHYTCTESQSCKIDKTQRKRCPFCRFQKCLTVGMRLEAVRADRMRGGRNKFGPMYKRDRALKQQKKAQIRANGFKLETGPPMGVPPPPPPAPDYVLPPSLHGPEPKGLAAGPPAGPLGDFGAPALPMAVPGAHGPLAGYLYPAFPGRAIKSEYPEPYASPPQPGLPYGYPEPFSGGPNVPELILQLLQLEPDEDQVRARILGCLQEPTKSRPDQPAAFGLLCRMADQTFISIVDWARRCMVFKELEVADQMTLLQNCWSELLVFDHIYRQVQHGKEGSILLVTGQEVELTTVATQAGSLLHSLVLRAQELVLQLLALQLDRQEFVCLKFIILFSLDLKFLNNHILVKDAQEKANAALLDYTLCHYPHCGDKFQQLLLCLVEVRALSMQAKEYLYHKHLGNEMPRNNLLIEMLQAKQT
Nuclear receptor subfamily 5 group A member 2, sequence (O00482 whole entry): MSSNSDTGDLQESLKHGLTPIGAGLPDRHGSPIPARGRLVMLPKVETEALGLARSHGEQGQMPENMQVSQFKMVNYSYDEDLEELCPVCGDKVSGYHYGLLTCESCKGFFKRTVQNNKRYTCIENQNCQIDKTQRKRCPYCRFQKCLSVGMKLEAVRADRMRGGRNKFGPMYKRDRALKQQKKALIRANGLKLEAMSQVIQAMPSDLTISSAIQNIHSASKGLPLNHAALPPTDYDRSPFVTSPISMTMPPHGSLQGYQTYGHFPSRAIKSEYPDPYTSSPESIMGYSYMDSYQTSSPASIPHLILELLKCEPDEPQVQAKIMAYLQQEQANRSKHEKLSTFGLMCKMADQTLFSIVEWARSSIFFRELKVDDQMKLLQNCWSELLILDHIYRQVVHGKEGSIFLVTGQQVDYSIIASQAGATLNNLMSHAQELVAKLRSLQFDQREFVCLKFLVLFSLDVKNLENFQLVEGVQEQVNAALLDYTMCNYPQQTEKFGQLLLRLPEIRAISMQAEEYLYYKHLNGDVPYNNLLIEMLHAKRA

With `COc1cc(/C=C/C(=O)CC(=O)/C=C/c2ccc(O)c(OC)c2)ccc1O` [CURCUMIN] the CC50 (Vero [1]) was 19.5 µM (active), the CC50 (Vero [1]; Chlorocebus sabaeus, Vero) was 19.9 µM (active) and the IC50 (H9c2) was > 79 µM (inactive). The EC50 [2] was 6.97 µM (active), the EC50 [3] was 13.1 µM (active) and the AC50 [4] was 56.2 µM (inconclusive). For the same molecule, the EC50 [5] was > 100 µM (active) and the IC50 (Vero [6]) was > 25 µM (active).
With `COc1ccccc1NC(=O)COC(=O)c1ccc([N+](=O)[O-])s1` the EC50 [7] was 39.4 µM (inactive), the IC50 [8] was 4.94 µM (active) and the IC50 (Caspase-3) was 11.5 µM (active). The AC50 [9] was 6.12 µM (active), the IC50 [10] was 7.35 µM (active) and the AC50 (Caspase-9) was 23.7 µM (active). For the same molecule, the AC50 (Caspase-6) was 1.95 µM (active), the AC50 (Caspase-8) was 22 µM (active) and the IC50 [11] was 3.83 µM (active). The AC50 (Caspase-7) was 16.4 µM (active).
In the case of `COc1ccc(C2=CC(=O)N(Nc3ccccc3)C2=O)cc1`, the IC50 [12] was 4.21 µM (active).
For `O=C(CSc1nnc(CNC(=O)c2ccccc2F)o1)Nc1ccc2c(c1)OCCO2`, the IC50 [13] was 17.6 µM (inactive), the IC50 [14] was > 66 µM (inactive) and the IC50 [15] was 35.9 µM (inactive). The IC50 [16] was > 66 µM (inactive) and the IC50 (Steroidogenic factor 1) was 1.56 µM (active).
For `Cc1ccccc1/C=N/n1c(S)nnc1C1CCCCC1`, the IC50 [17] was 155 µM (inactive).
With `O=C(c1ccco1)N1CCN(c2cc(-c3ccccc3)nc3cc(-c4ccc(F)cc4)nn23)CC1` the EC50 [18] was 3.4 µM (active) and the EC50 [19] was 1.05 µM (active).
